Laboratory results: ChEMBL document CHEMBL1127131, “Penems containing amino acid derived substituents at C-2” (1993)
In brackets after ≈: the same amount, converted by molar mass.

Experiments:
Serratia [1] = assay: Minimum inhibitory concentration required for antibacterial activity against Serratia; format: functional
Escherichia coli = assay: Minimum inhibitory concentration required for antibacterial activity against Escherichia coli; format: functional
Providencia = assay: Minimum inhibitory concentration required for antibacterial activity against Providencia; format: functional
Micrococcus luteus = assay: Minimum inhibitory concentration required for antibacterial activity against Sarcina luteus; format: functional, sarcinea luteus
Morganella = assay: Minimum inhibitory concentration required for antibacterial activity against Morganella; format: functional
Klebsiella = assay: Minimum inhibitory concentration required for antibacterial activity against Klebsiella; format: functional
[2] = Gram-negative geometric mean MIC of antibacterial activity; format: functional
Salmonella = assay: Minimum inhibitory concentration required for antibacterial activity against Salmonella; format: functional
Enterobacter = assay: Minimum inhibitory concentration required for antibacterial activity against Enterobacter; format: functional
Bacillus subtilis = assay: Minimum inhibitory concentration required for antibacterial activity against Bacillus subtilis; format: functional
[3] = Gram-positive geometric mean MIC for antibacterial activity (ug/mL); format: functional
Enterococcus faecalis = assay: Minimum inhibitory required for antibacterial activity against Streptococcus faecalis; format: functional
Staphylococcus = assay: Minimum inhibitory concentration required for antibacterial activity against Staphylococcus; format: functional
Serratia [4] = assay: Minimum inhibitory concentration for antibacterial activity against Serratia; format: functional
[5] = Gram-positive geometric mean MIC of antibacterial activity; format: functional
[6] = Gram-positive vitro for its antibacterial activity of Geometric Mean MIC (ug/mL); format: functional

| MIC (Serratia [1]) | MIC (Escherichia coli) | MIC (Providencia) | MIC (Micrococcus luteus) | MIC (Morganella) | MIC (Klebsiella) | MIC [2] | MIC (Salmonella) | MIC (Enterobacter) | MIC (Bacillus subtilis) | MIC [3] | MIC (Enterococcus faecalis) | MIC (Staphylococcus) | MIC (Serratia [4]) | MIC [5] | MIC [6] | Structure (SMILES) |
| --- | --- | --- | --- | --- | --- | --- | --- | --- | --- | --- | --- | --- | --- | --- | --- | --- |
| 38.1 µg/mL (≈ 120 µM) | 11.7 µg/mL (≈ 36.7 µM) | 55.7 µg/mL (≈ 175 µM) | 0.031 µg/mL (≈ 0.0974 µM) | 64.1 µg/mL (≈ 201 µM) | 12.1 µg/mL (≈ 38.1 µM) | 17.6 µg/mL | 10.1 µg/mL (≈ 31.7 µM) | 20.2 µg/mL (≈ 63.3 µM) | 4 µg/mL (≈ 12.6 µM) | 0.37 µg/mL (≈ 1.16 µM) | 64 µg/mL (≈ 201 µM) | 0.214 µg/mL (≈ 0.672 µM) | – | – | – | CSCC[C@H](N)C1=C(C(=O)O)N2C(=O)[C@H]([C@@H](C)O)[C@H]2S1 |
| 2.83 µg/mL (≈ 9.3 µM) | 0.707 µg/mL (≈ 2.32 µM) | 9.19 µg/mL (≈ 30.2 µM) | 2 µg/mL (≈ 6.57 µM) | 2 µg/mL (≈ 6.57 µM) | 0.595 µg/mL (≈ 1.95 µM) | 1.33 µg/mL | 0.794 µg/mL (≈ 2.61 µM) | 2 µg/mL (≈ 6.57 µM) | 0.125 µg/mL (≈ 0.411 µM) | 0.18 µg/mL (≈ 0.591 µM) | 16 µg/mL (≈ 52.6 µM) | 0.099 µg/mL (≈ 0.325 µM) | – | – | – | CSC[C@@H](N)C1=C(C(=O)O)N2C(=O)[C@H]([C@@H](C)O)[C@H]2S1 |
| – | 5.15 µg/mL (≈ 21.1 µM) | 8 µg/mL (≈ 32.8 µM) | 0.5 µg/mL (≈ 2.05 µM) | 4 µg/mL (≈ 16.4 µM) | 6.06 µg/mL (≈ 24.8 µM) | 6.27 µg/mL | 3.18 µg/mL (≈ 13 µM) | 8 µg/mL (≈ 32.8 µM) | 0.5 µg/mL (≈ 2.05 µM) | 0.28 µg/mL (≈ 1.15 µM) | 32 µg/mL (≈ 131 µM) | 0.153 µg/mL (≈ 0.626 µM) | 13.4 µg/mL (≈ 55.1 µM) | – | – | C[C@@H](O)[C@H]1C(=O)N2C(C(=O)O)=C(CN)S[C@H]12 |
| – | 4 µg/mL (≈ 11.5 µM) | 13.9 µg/mL (≈ 40 µM) | 0.5 µg/mL (≈ 1.44 µM) | 8 µg/mL (≈ 23 µM) | 4.93 µg/mL (≈ 14.2 µM) | 6.4 µg/mL | 3.18 µg/mL (≈ 9.13 µM) | 10.1 µg/mL (≈ 28.9 µM) | 0.5 µg/mL (≈ 1.44 µM) | 0.94 µg/mL (≈ 2.7 µM) | 22.6 µg/mL (≈ 65 µM) | 0.707 µg/mL (≈ 2.03 µM) | 19 µg/mL (≈ 54.6 µM) | – | – | C[C@@H](O)[C@H]1C(=O)N2C(C(=O)O)=C(CSC[C@H](N)C(=O)O)S[C@H]12 |
| – | 0.284 µg/mL (≈ 0.815 µM) | 2 µg/mL (≈ 5.74 µM) | 0.5 µg/mL (≈ 1.44 µM) | 2 µg/mL (≈ 5.74 µM) | 0.308 µg/mL (≈ 0.884 µM) | 0.51 µg/mL | 0.25 µg/mL (≈ 0.718 µM) | 0.63 µg/mL (≈ 1.81 µM) | 0.25 µg/mL (≈ 0.718 µM) | 1.1 µg/mL (≈ 3.16 µM) | 16 µg/mL (≈ 45.9 µM) | 0.852 µg/mL (≈ 2.45 µM) | 1.68 µg/mL (≈ 4.82 µM) | – | – | C[C@@H](O)[C@H]1C(=O)N2C(C(=O)O)=C(CSC[C@@H](N)C(=O)O)S[C@H]12 |
| 1.08 µg/mL (≈ 3.23 µM) | 0.25 µg/mL (≈ 0.748 µM) | 5.66 µg/mL (≈ 16.9 µM) | 4 µg/mL (≈ 12 µM) | – | 0.17 µg/mL (≈ 0.508 µM) | 0.49 µg/mL | 0.16 µg/mL (≈ 0.479 µM) | 0.76 µg/mL (≈ 2.27 µM) | 0.5 µg/mL (≈ 1.5 µM) | – | 45.2 µg/mL (≈ 135 µM) | 1.82 µg/mL (≈ 5.44 µM) | – | 3.01 µg/mL | – | C[C@@H](O)[C@H]1C(=O)N2C(C(=O)O)=C(SC[C@@H](N)C(=O)O)S[C@H]12 |
| 22.6 µg/mL (≈ 74.3 µM) | 12.4 µg/mL (≈ 40.9 µM) | 97 µg/mL (≈ 319 µM) | 0.25 µg/mL (≈ 0.821 µM) | 128 µg/mL (≈ 421 µM) | 8.57 µg/mL (≈ 28.2 µM) | 16.3 µg/mL | 5.04 µg/mL (≈ 16.6 µM) | 20.2 µg/mL (≈ 66.2 µM) | 0.5 µg/mL (≈ 1.64 µM) | – | 90.5 µg/mL (≈ 297 µM) | 0.26 µg/mL (≈ 0.854 µM) | – | – | 0.45 µg/mL (≈ 1.48 µM) | CSC[C@H](N)C1=C(C(=O)O)N2C(=O)[C@H]([C@@H](C)O)[C@H]2S1 |
| 17.3 µg/mL (≈ 51.7 µM) | 6.46 µg/mL (≈ 19.3 µM) | 42.7 µg/mL (≈ 128 µM) | 4 µg/mL (≈ 12 µM) | – | 4 µg/mL (≈ 12 µM) | 16 µg/mL | 5.28 µg/mL (≈ 15.8 µM) | 16 µg/mL (≈ 47.9 µM) | 2.83 µg/mL (≈ 8.46 µM) | 4 µg/mL (≈ 12 µM) | 128 µg/mL (≈ 383 µM) | 1.94 µg/mL (≈ 5.8 µM) | – | – | – | C[C@@H](O)[C@H]1C(=O)N2C(C(=O)O)=C(SC[C@H](N)C(=O)O)S[C@H]12 |
| – | 0.3 µg/mL (≈ 0.897 µM) | 0.87 µg/mL (≈ 2.6 µM) | – | 2 µg/mL (≈ 5.98 µM) | 0.35 µg/mL (≈ 1.05 µM) | 0.57 µg/mL | 0.25 µg/mL (≈ 0.748 µM) | 1.3 µg/mL (≈ 3.89 µM) | 0.06 µg/mL (≈ 0.179 µM) | 0.15 µg/mL (≈ 0.449 µM) | 5.7 µg/mL (≈ 17 µM) | 0.11 µg/mL (≈ 0.329 µM) | 4.8 µg/mL (≈ 14.4 µM) | – | – | C[C@@H](O)[C@H]1C(=O)N2C(C(=O)O)=C(SCCOC(N)=O)S[C@H]12 [Sch-34343] |
| 13.4 µg/mL (≈ 42.5 µM) | 3.11 µg/mL (≈ 9.83 µM) | 16 µg/mL (≈ 50.6 µM) | 2 µg/mL (≈ 6.32 µM) | 16 µg/mL (≈ 50.6 µM) | 3.73 µg/mL (≈ 11.8 µM) | 5.4 µg/mL | 4 µg/mL (≈ 12.6 µM) | 6.35 µg/mL (≈ 20.1 µM) | 0.25 µg/mL (≈ 0.79 µM) | 1 µg/mL (≈ 3.16 µM) | 16 µg/mL (≈ 50.6 µM) | 0.735 µg/mL (≈ 2.32 µM) | – | – | – | C[C@@H](O)[C@H]1C(=O)N2C(C(=O)O)=C([C@H](N)CCC(=O)O)S[C@H]12 |
| 2.83 µg/mL (≈ 8.89 µM) | 0.441 µg/mL (≈ 1.38 µM) | 5.28 µg/mL (≈ 16.6 µM) | 0.125 µg/mL (≈ 0.393 µM) | 4 µg/mL (≈ 12.6 µM) | 0.5 µg/mL (≈ 1.57 µM) | 0.13 µg/mL | 0.397 µg/mL (≈ 1.25 µM) | 1 µg/mL (≈ 3.14 µM) | 0.125 µg/mL (≈ 0.393 µM) | 0.88 µg/mL (≈ 2.76 µM) | 8.02 µg/mL (≈ 25.2 µM) | 0.07 µg/mL (≈ 0.22 µM) | – | – | – | CSCC[C@@H](N)C1=C(C(=O)O)N2C(=O)[C@H]([C@@H](C)O)[C@H]2S1 |
| 45.3 µg/mL (≈ 175 µM) | 21.9 µg/mL (≈ 84.9 µM) | 64 µg/mL (≈ 248 µM) | 0.5 µg/mL (≈ 1.94 µM) | 64 µg/mL (≈ 248 µM) | 17.1 µg/mL (≈ 66.4 µM) | 24.6 µg/mL | 10.1 µg/mL (≈ 39 µM) | 20.2 µg/mL (≈ 78 µM) | 1 µg/mL (≈ 3.87 µM) | 0.47 µg/mL (≈ 1.82 µM) | 64 µg/mL (≈ 248 µM) | 0.26 µg/mL (≈ 1.01 µM) | – | – | – | C[C@H](N)C1=C(C(=O)O)N2C(=O)[C@H]([C@@H](C)O)[C@H]2S1 |
| 16 µg/mL (≈ 50.6 µM) | 2.42 µg/mL (≈ 7.65 µM) | 18.4 µg/mL (≈ 58.1 µM) | 4 µg/mL (≈ 12.6 µM) | 16 µg/mL (≈ 50.6 µM) | 2.83 µg/mL (≈ 8.95 µM) | 4 µg/mL | 1 µg/mL (≈ 3.16 µM) | 2.52 µg/mL (≈ 7.97 µM) | 1.01 µg/mL (≈ 3.19 µM) | 2.7 µg/mL (≈ 8.54 µM) | 45.3 µg/mL (≈ 143 µM) | 2.08 µg/mL (≈ 6.58 µM) | – | – | – | C[C@@H](O)[C@H]1C(=O)N2C(C(=O)O)=C(CC[C@@H](N)C(=O)O)S[C@H]12 |
| 45.3 µg/mL (≈ 143 µM) | 9.67 µg/mL (≈ 30.6 µM) | 55.7 µg/mL (≈ 176 µM) | 8 µg/mL (≈ 25.3 µM) | 64 µg/mL (≈ 202 µM) | 12.1 µg/mL (≈ 38.3 µM) | 17.3 µg/mL | 11.3 µg/mL (≈ 35.8 µM) | 16 µg/mL (≈ 50.6 µM) | 2 µg/mL (≈ 6.32 µM) | 3.4 µg/mL (≈ 10.7 µM) | 90.5 µg/mL (≈ 286 µM) | 2.33 µg/mL (≈ 7.37 µM) | – | – | – | C[C@@H](O)[C@H]1C(=O)N2C(C(=O)O)=C(CC[C@H](N)C(=O)O)S[C@H]12 |
| – | 0.68 µg/mL (≈ 2.36 µM) | 2.3 µg/mL (≈ 7.98 µM) | – | 2 µg/mL (≈ 6.94 µM) | 0.81 µg/mL (≈ 2.81 µM) | 1.2 µg/mL | 0.5 µg/mL (≈ 1.73 µM) | 3.2 µg/mL (≈ 11.1 µM) | 0.06 µg/mL (≈ 0.208 µM) | 0.16 µg/mL (≈ 0.555 µM) | 5.7 µg/mL (≈ 19.8 µM) | 0.12 µg/mL (≈ 0.416 µM) | 5.7 µg/mL (≈ 19.8 µM) | – | – | C[C@@H](O)[C@H]1C(=O)N2C(C(=O)O)=C(COC(N)=O)S[C@H]12 [RITIPENEM] |
| 26.9 µg/mL (≈ 104 µM) | 11.7 µg/mL (≈ 45.2 µM) | 55.7 µg/mL (≈ 216 µM) | – | 32 µg/mL (≈ 124 µM) | 9.85 µg/mL (≈ 38.1 µM) | 14.3 µg/mL | 5.04 µg/mL (≈ 19.5 µM) | 10.1 µg/mL (≈ 39 µM) | – | 0.29 µg/mL (≈ 1.12 µM) | – | 0.229 µg/mL (≈ 0.887 µM) | – | – | – | C[C@@H](N)C1=C(C(=O)O)N2C(=O)[C@H]([C@@H](C)O)[C@H]2S1 |
